The record followed here is patent US10123993B2, “Cyclic ureas as inhibitors of rock” (BRISTOL-MYERS SQUIBB COMPANY, priority 2015, dated 2018).

Sequence of ROCK2 (O75116 whole entry, species assumed): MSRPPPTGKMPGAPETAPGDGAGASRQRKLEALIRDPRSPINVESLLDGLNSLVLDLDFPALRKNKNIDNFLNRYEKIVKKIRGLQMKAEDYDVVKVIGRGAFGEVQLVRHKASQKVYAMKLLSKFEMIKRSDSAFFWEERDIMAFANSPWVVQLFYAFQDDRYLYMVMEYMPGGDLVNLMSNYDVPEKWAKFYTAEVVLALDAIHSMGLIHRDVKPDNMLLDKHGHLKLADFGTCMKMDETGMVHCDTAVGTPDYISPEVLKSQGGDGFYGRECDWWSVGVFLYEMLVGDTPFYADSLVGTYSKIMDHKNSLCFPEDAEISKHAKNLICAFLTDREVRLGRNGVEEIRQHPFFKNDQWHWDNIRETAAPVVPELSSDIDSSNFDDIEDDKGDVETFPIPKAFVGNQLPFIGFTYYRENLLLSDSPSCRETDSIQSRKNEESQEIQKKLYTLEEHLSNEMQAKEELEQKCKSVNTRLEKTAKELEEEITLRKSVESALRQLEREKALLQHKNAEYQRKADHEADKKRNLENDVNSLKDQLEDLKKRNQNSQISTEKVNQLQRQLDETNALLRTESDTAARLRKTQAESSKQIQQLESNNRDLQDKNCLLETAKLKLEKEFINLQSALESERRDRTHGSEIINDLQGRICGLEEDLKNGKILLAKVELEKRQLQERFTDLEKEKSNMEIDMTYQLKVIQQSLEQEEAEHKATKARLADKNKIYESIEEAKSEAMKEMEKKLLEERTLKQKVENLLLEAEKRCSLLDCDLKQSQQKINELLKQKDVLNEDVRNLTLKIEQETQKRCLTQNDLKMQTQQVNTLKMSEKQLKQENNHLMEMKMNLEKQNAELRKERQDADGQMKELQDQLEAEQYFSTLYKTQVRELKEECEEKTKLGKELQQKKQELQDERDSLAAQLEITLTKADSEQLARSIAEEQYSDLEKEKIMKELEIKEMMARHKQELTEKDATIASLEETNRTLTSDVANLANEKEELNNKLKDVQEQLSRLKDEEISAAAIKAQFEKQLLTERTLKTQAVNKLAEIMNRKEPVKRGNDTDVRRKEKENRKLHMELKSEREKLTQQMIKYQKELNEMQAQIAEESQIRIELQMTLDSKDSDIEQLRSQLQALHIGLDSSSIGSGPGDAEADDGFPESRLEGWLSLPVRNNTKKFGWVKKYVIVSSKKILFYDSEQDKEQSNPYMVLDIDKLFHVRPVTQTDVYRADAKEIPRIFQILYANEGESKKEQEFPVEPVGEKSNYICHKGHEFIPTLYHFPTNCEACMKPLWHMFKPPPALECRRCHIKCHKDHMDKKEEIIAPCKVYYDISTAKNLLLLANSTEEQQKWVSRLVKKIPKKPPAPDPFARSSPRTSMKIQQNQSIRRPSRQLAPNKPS

The experiment addresses ROCK2 (Homo sapiens, UniProt O75116). In words: ROCK2 kinase inhibition assay (Caliper LABCHIP, FITC peptide substrate). The class given is biochemical. The following applies: 5 μM ATP, 1.5 μM peptide substrate; value ranges. As to the method:
The effectiveness of compounds of the present invention as ROCK inhibitors can be determined in a 30 μL assay containing 20 mM HEPES, pH 7.5, 20 mM MgCl2, 0.015% Brij-35, 4 mM DTT, 5 μM ATP and 1.5 μM peptide substrate (FITC-AHA-AKRRRLSSLRA-OH). Compounds were dissolved in DMSO so that the final concentration of DMSO was <2%, and the reaction was initiated with Rho kinase variants. After incubation, the reaction was terminated by the addition of EDTA and the phosphorylated and non-phosphorylated peptides separated using a LABCHIP® 3000 Reader (Caliper Life Sciences). […] Compounds were tested in dose-response format, and the inhibition of kinase activity was calculated at each concentration of compound. The inhibition data were fit using a curve-fitting program to determine the IC50; i.e., the concentration of compound required to inhibit 50% of kinase activity.
Representative Examples were tested in the ROCK2 assay described above and found having ROCK inhibitory activity.
As usually defined, the IC50 is the point on the concentration scale where inhibition reaches its midpoint. The low end stands for greater potency in that assay, the high end for weaker potency in that assay. On to `COc1cccc(CN2C(=O)N(c3ccc(-c4cn[nH]c4)cc3)CC2CO)c1` (racemic) [Example 37, 1-(4-(1H-Pyrazol-4-yl)phenyl)-4-(hydroxymethyl)-3-(3-methoxybenzyl)imidazolidin-2-one], for which the half-inhibitory concentration (IC50) was under 2 nM.

`COc1cccc(CN2C(=O)N(c3ccc(-c4cn[nH]c4)cc3)CC2C(C)(C)O)c1` (single isomer, unassigned) [Example 123, 1-(4-(1H-Pyrazol-4-yl)phenyl)-4-(2-hydroxypropan-2-yl)-3-(3-methoxybenzyl)imidazolidin-2-one] registered an IC50 of under 2 nM.

In the case of `COc1cccc(CN2C(=O)N(c3ccc(-c4cn[nH]c4)cc3)CC2C(C)(C)O)c1` (single isomer, unassigned) [Example 124, 1-(4-(1H-Pyrazol-4-yl)phenyl)-4-(2-hydroxypropan-2-yl)-3-(3-methoxybenzyl)imidazolidin-2-one], the half-maximal inhibitory concentration (IC50) was under 2 nM.

Consider `COc1cccc(CN2CC(CO)N(c3ccc(-c4cn[nH]c4)cc3)C2=O)c1` (single isomer, unassigned) [Example 126, 3-(4-(1H-Pyrazol-4-yl)phenyl)-4-(hydroxymethyl)-1-(3-methoxybenzyl)imidazolidin-2-one], for which the IC50 was in the range of 20.1 to 200 nM.

`COc1cccc(CN2CC(CO)N(c3ccc(-c4cn[nH]c4)cc3)C2=O)c1` (single isomer, unassigned) [Example 127, 3-(4-(1H-Pyrazol-4-yl)phenyl)-4-(hydroxymethyl)-1-(3-methoxybenzyl)imidazolidin-2-one]: the IC50 is under 2 nM.

`COc1cc(CN2C(=O)N(c3ccc(-c4cn[nH]c4)cc3)C[C@@H]2CO)ccc1F` (single isomer, unassigned) [Example 130] yielded an IC50 of 2.1 to 20 nM.

`COc1cc(CN2C(=O)N(c3ccc(-c4cn[nH]c4)cc3)C[C@H]2CO)ccc1F` (single isomer, unassigned) [Example 131] gave a 50% inhibitory concentration (IC50) of 2.1 to 20 nM.

In the case of `COc1cccc(C(C)N2C(=O)N(c3ccc(-c4cn[nH]c4)cc3)C[C@@H]2CO)c1` (single isomer, unassigned) [Example 132], the IC50 was 2.1 to 20 nM.

The molecule `COc1cccc(C(C)N2C(=O)N(c3ccc(-c4cn[nH]c4)cc3)C[C@@H]2CO)c1` (single isomer, unassigned) [Example 133] registered an IC50 of 20.1 to 200 nM.

Turning to `COc1cccc(CN2C(=O)N(c3ccc(-c4cn[nH]c4)c(OC)c3)CC2CO)c1` (single isomer, unassigned) [Example 134, 4-(hydroxy-methyl)-1-(3-methoxy-4-(1H-pyrazol-4-yl)phenyl)-3-(3-methoxy-benzyl) imidazolidin-2-one], the concentration for half-maximal inhibition (IC50) is 200 to 2000 nM.

For `COc1cccc(CN2C(=O)N(c3ccc(-c4cn[nH]c4)c(OC)c3)CC2CO)c1` (single isomer, unassigned) [Example 135, 4-(hydroxy-methyl)-1-(3-methoxy-4-(1H-pyrazol-4-yl)phenyl)-3-(3-methoxy-benzyl) imidazolidin-2-one], the half-maximal inhibitory concentration (IC50) lay within 200 to 2000 nM.

`COc1cccc(C(C)N2C(=O)N(c3ccc(-c4cn[nH]c4)cc3)CC2(C)C)c1` (single isomer, unassigned) [Example 145, 1-(4-(1H-pyrazol-4-yl)phenyl)-3-(1-(3-methoxy-phenyl)-ethyl)-4,4-dimethyl-imidazolidin-2-one] displayed a half-inhibitory concentration (IC50) of 2.1 to 20 nM.

Regarding `COc1cccc(C(C)N2C(=O)N(c3ccc(-c4cn[nH]c4)cc3)CC2(C)C)c1` (single isomer, unassigned) [Example 146, 1-(4-(1H-pyrazol-4-yl)phenyl)-3-(1-(3-methoxy-phenyl)-ethyl)-4,4-dimethyl-imidazolidin-2-one], the IC50 was 20.1 to 200 nM.

As to `COc1cccc(C(CO)N2CCN(c3ccc(-c4cn[nH]c4)cc3)C2=O)c1` (single isomer, unassigned) [Example 154, 1-(4-(1H-Pyrazol-4-yl)phenyl)-3-(2-hydroxy-1-(3-methoxyphenyl)ethyl)imidazolidin-2-one], the 50% inhibitory concentration (IC50) was 20.1 to 200 nM.

Consider `COc1cccc(C(CO)N2CCN(c3ccc(-c4cn[nH]c4)cc3)C2=O)c1` (single isomer, unassigned) [Example 155, 1-(4-(1H-Pyrazol-4-yl)phenyl)-3-(2-hydroxy-1-(3-methoxyphenyl)ethyl)imidazolidin-2-one], for which the concentration for half-maximal inhibition (IC50) is under 2 nM.

Consider `COCC(c1cccc(OC)c1)N1CCN(c2ccc(-c3cn[nH]c3)cc2)C1=O` (single isomer, unassigned) [Example 156, 1-(4-(1H-Pyrazol-4-yl)phenyl)-3-(2-methoxy-1-(3-methoxyphenyl)ethyl)imidazolidin-2-one], for which the IC50 was 2.1 to 20 nM.

On to `COCC(c1cccc(OC)c1)N1CCN(c2ccc(-c3cn[nH]c3)cc2)C1=O` (single isomer, unassigned) [Example 157, 1-(4-(1H-Pyrazol-4-yl)phenyl)-3-(2-methoxy-1-(3-methoxyphenyl)ethyl)imidazolidin-2-one], for which the 50% inhibitory concentration (IC50) is 200 to 2000 nM.

Molecule `CCc1nc(N2CCN(C(CO)c3cccc(OC)c3)C2=O)ccc1-c1cn[nH]c1` (single isomer, unassigned) [Example 158, 1-(6-ethyl-5-(1H-pyrazol-4-yl)pyridin-2-yl)-3-(2-hydroxy-1-(3-methoxy-phenyl)ethyl) imidazolidin-2-one] registered an IC50 of 20.1 to 200 nM.

Turning to `CCc1nc(N2CCN(C(CO)c3cccc(OC)c3)C2=O)ccc1-c1cn[nH]c1` (single isomer, unassigned) [Example 159, 1-(6-ethyl-5-(1H-pyrazol-4-yl)pyridin-2-yl)-3-(2-hydroxy-1-(3-methoxy-phenyl)ethyl) imidazolidin-2-one], the IC50 was under 2 nM.

`COc1cccc(C(CO)N2CCN(c3ccc(-c4cn[nH]c4)c(C)n3)C2=O)c1` (single isomer, unassigned) [Example 160, 1-(2-hydroxy-1-(3-methoxy-phenyl)ethyl)-3-(6-methyl-5-(1H-pyrazol-4-yl)pyridin-2-yl)imidazolidin-2-one] displayed a half-maximal inhibitory concentration (IC50) of 20.1 to 200 nM.

In turn, `COc1cccc(C(CO)N2CCN(c3ccc(-c4cn[nH]c4)c(C)n3)C2=O)c1` (single isomer, unassigned) [Example 161, 1-(2-hydroxy-1-(3-methoxy-phenyl)ethyl)-3-(6-methyl-5-(1H-pyrazol-4-yl)pyridin-2-yl)imidazolidin-2-one] gave an IC50 of 2.1 to 20 nM.

Molecule `O=C1N(c2ccc(-c3cn[nH]c3)cc2)CCN1C(CO)c1ccccc1` (single isomer, unassigned) [Example 162, 1-(4-(1H-pyrazol-4-yl)phenyl)-3-(2-hydroxy-1-phenylethyl) imidazolidin-2-one] came in with a half-maximal inhibitory concentration (IC50) of 200 to 2000 nM.

`O=C1N(c2ccc(-c3cn[nH]c3)cc2)CCN1C(CO)c1ccccc1` (single isomer, unassigned) [Example 163, 1-(4-(1H-pyrazol-4-yl)phenyl)-3-(2-hydroxy-1-phenylethyl) imidazolidin-2-one] yielded an IC50 of 2.1 to 20 nM.

In the case of `COc1cccc(C(CO)N2CCN(c3ccc(-c4cn[nH]c4)c(C)c3)C2=O)c1` (single isomer, unassigned) [Example 164, 1-(2-hydroxy-1-(3-methoxy-phenyl)ethyl)-3-(3-methyl-4-(1H-pyrazol-4-yl)phenyl) imidazolidin-2-one], the 50% inhibitory concentration (IC50) fell in the range of 200 to 2000 nM.

The molecule `COc1cccc(C(CO)N2CCN(c3ccc(-c4cn[nH]c4)c(C)c3)C2=O)c1` (single isomer, unassigned) [Example 165, 1-(2-hydroxy-1-(3-methoxy-phenyl)ethyl)-3-(3-methyl-4-(1H-pyrazol-4-yl)phenyl) imidazolidin-2-one] had an IC50 of 2.1 to 20 nM.

In turn, `CCc1cc(N2CCN(C(CO)c3cccc(OC)c3)C2=O)ccc1-c1cn[nH]c1` (single isomer, unassigned) [Example 166, 1-(3-ethyl-4-(1H-pyrazol-4-yl)phenyl)-3-(2-hydroxy-1-(3-methoxy-phenyl)ethyl) imidazolidin-2-one] registered an IC50 of 2.1 to 20 nM.

For `CCc1nc(N2CCN(C(C)c3cccc(OC)c3)C2=O)ccc1-c1cn[nH]c1` (single isomer, unassigned) [Example 173, 1-(6-ethyl-5-(1H-pyrazol-4-yl)pyridin-2-yl)-3-(1-(3-methoxy-phenyl)ethyl) imidazolidin-2-one], the IC50 was under 2 nM.

`CCc1nc(N2CCN(C(C)c3cccc(OC)c3)C2=O)ccc1-c1cn[nH]c1` (single isomer, unassigned) [Example 174, 1-(6-ethyl-5-(1H-pyrazol-4-yl)pyridin-2-yl)-3-(1-(3-methoxy-phenyl)ethyl) imidazolidin-2-one] registered a half-inhibitory concentration (IC50) of 200 to 2000 nM.

`COc1cccc(C(C)N2CCN(c3ccc(-c4cn[nH]c4)c(C)n3)C2=O)c1` (single isomer, unassigned) [Example 181, 1-(1-(3-methoxy-phenyl)-ethyl)-3-(6-methyl-5-(1H-pyrazol-4-yl)pyridin-2-yl)-imidazolidin-2-one] gave a half-inhibitory concentration (IC50) of 2.1 to 20 nM.

Consider `COc1cccc(C(C)N2CCN(c3ccc(-c4cn[nH]c4)c(C)n3)C2=O)c1` (single isomer, unassigned) [Example 182, 1-(1-(3-methoxy-phenyl)-ethyl)-3-(6-methyl-5-(1H-pyrazol-4-yl)pyridin-2-yl)-imidazolidin-2-one], for which the half-inhibitory concentration (IC50) lay in the range of 200 to 2000 nM.

In the case of `CCc1nc(-n2ccn(C(C)c3cccc(OC)c3)c2=O)ccc1-c1cn[nH]c1` (single isomer, unassigned) [Example 183, 1-(6-ethyl-5-(1H-pyrazol-4-yl)pyridin-2-yl)-3-(1-(3-methoxy-phenyl)-ethyl)-1H-imidazol-2(3H)-one], the half-maximal inhibitory concentration (IC50) is under 2 nM.
